Some test systems named below: MCF7; HCT-116; KM12; HL-60; KM-20L2; COLO 205; ACHN; HT-29; MDA-MB-435; UO-31; UACC-257; MDA-N; NCI/ADR-RES; OVCAR-5; RPMI-8226; SK-MEL-28; T47D; BT-549; Malme-3M; NCI-H522.
Holding throughout (assay): NCI anticancer screen, dose series, 48 h

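96-well plates; 48 h exposure; 5 concentrations. Endpoints by linear interpolation between flanking doses. Not reached: highest tested concentration assigned. The concentration for 50% growth inhibition is given as GI50.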 Active and inactive are the calls of the source. Rule as the data show it: active = GI50 up to about 1.1 µM and inactive = higher.

The record followed here is ChEMBL document CHEMBL1201862, “PubChem BioAssay data set” (2004).

For the compound `Cc1cc(O)nc(NN2C(Cl)C(=O)C2c2ccccc2O)n1` (stereo not given), the GI50 in the experiment with MCF7 is 2.48 µM (inactive); with HCT-116 it was 2.14 µM (inactive); in the experiment on KM12, 4.32 µM (inactive); in the experiment on HL-60, 0.689 µM (active); in the experiment on KM-20L2 it was 10.7 µM (inactive); in the experiment with COLO 205 it was 12.1 µM (inactive). The GI50 was 1.44 µM (inactive) in the experiment on ACHN; 8.39 µM (inactive) with HT-29; 5.68 µM (inactive) in the experiment on MDA-MB-435; 2.06 µM (inactive) in the experiment with UO-31; 3.4 µM (inactive) in the experiment with UACC-257; 4.36 µM (inactive) in the experiment on MDA-N. Moreover, the GI50 was 1.54 µM (inactive) in the experiment with NCI/ADR-RES; 12.9 µM (inactive) in the experiment with OVCAR-5; 3.06 µM (inactive) in the experiment on RPMI-8226; 4.94 µM (inactive) in the experiment on SK-MEL-28; 3.99 µM (inactive) with T47D.
Turning to `C/C(=N\N=C(/[SeH])N1CC2CCC(CC2)C1)c1ccccn1`, the GI50 in the experiment with MCF7 was < 0.01 µM (active); in the experiment with HCT-116, < 0.01 µM (active); with KM12, 0.094 µM (active); in the experiment with HL-60 it was 0.0166 µM (active); in the experiment with KM-20L2, < 0.01 µM (active); in the experiment on BT-549, 182 nM (active). Further, the GI50 in the experiment with Malme-3M is 0.0506 µM (active); in the experiment on COLO 205 it was < 0.01 µM (active); with ACHN, 0.215 µM (active); in the experiment with NCI-H522 it was 0.161 µM (active); in the experiment on HT-29, < 0.01 µM (active); in the experiment with MDA-MB-435 it was 0.119 µM (active). Moreover, the GI50 in the experiment with UO-31 was 0.217 µM (active); in the experiment with UACC-257, 0.0112 µM (active); with MDA-N it was 0.226 µM (active); in the experiment on NCI/ADR-RES, < 0.01 µM (active); with OVCAR-5 it was 0.179 µM (active); in the experiment on RPMI-8226 it was < 0.01 µM (active). The GI50 was 0.0955 µM (active) in the experiment on SK-MEL-28 and 0.0556 µM (active) in the experiment on T47D.
On to `NC(=S)N/N=C1\CCCC\C1=C/c1ccccc1`, for which the GI50 is 58.2 µM (inactive) with HCT-116; 45.1 µM (inactive) with KM12; 1.88 µM (inactive) with HL-60; > 100 µM (inactive) in the experiment on KM-20L2; 60.8 µM (inactive) in the experiment with Malme-3M; 65.6 µM (inactive) with COLO 205. The GI50 in the experiment on ACHN is > 100 µM (inactive); with NCI-H522 it was 18.7 µM (inactive); in the experiment on HT-29, 20 µM (inactive); in the experiment with UO-31, 32.5 µM (inactive); in the experiment on UACC-257, 17.9 µM (inactive); in the experiment with OVCAR-5 it was 12.8 µM (inactive). In addition, the results for the GI50 with RPMI-8226 and with SK-MEL-28 were 15 µM (inactive) and > 100 µM (inactive), respectively.
As for `CC1CC[C@]2(C(=O)O)CCC3(COC(=O)/C=C\c4ccc(O)cc4)C(=CCC4[C@@]5(C)CC[C@H](O)C(C)(C)C5CC[C@]43C)[C@@H]2[C@H]1C` (stereo not given in full), the GI50 in the experiment on HCT-116 is 17.5 µM (inactive); in the experiment with KM12 it was 7.21 µM (inactive); in the experiment on HL-60, 26.2 µM (inactive); in the experiment on KM-20L2 it was 18.4 µM (inactive); in the experiment on Malme-3M, 34.8 µM (inactive); in the experiment on COLO 205 it was 23.3 µM (inactive). For the same compound, the GI50 with ACHN is 10.4 µM (inactive); in the experiment on NCI-H522, 17.5 µM (inactive); in the experiment with HT-29, 19.7 µM (inactive); in the experiment with UO-31 it was 17.7 µM (inactive); with UACC-257, 31 µM (inactive); in the experiment with OVCAR-5 it was 19.5 µM (inactive). For the same compound, the GI50 in the experiment with RPMI-8226 is 22.3 µM (inactive); in the experiment on SK-MEL-28, 20 µM (inactive).
As for `CC1CC2C3CC(F)C4=CC(=O)C=CC4(C)C3(F)C(O)CC2(C)C1(O)C(=O)CO` (stereo not given), the GI50 with HCT-116, in the experiment on KM12, in the experiment with HL-60, in the experiment with KM-20L2, with Malme-3M and in the experiment on COLO 205 was > 100 µM (inactive) throughout. Besides, the GI50 in the experiment with ACHN is > 100 µM (inactive); in the experiment with NCI-H522, > 100 µM (inactive); in the experiment on HT-29, > 100 µM (inactive); with UO-31, > 100 µM (inactive); in the experiment with UACC-257 it was > 100 µM (inactive); in the experiment on OVCAR-5 it was > 10 µM (inactive). In addition, the GI50 with RPMI-8226 and in the experiment with SK-MEL-28 was > 100 µM (inactive) each time.
As for `CCOC(=O)CCC(NC(=O)c1ccc(/N=C/c2nc3cc(C(F)(F)F)ccc3nc2-c2ccccc2)cc1)C(=O)OCC` (stereo not given), the GI50 with HCT-116 was 6.56 µM (inactive); with KM12, 18.3 µM (inactive); in the experiment with HL-60, 8.91 µM (inactive); in the experiment with KM-20L2, > 50 µM (inactive); in the experiment with Malme-3M, 6.4 µM (inactive); in the experiment with COLO 205, 25.5 µM (inactive). Besides, the GI50 in the experiment with ACHN is 11.1 µM (inactive); with NCI-H522 it was 12.3 µM (inactive); in the experiment on HT-29 it was > 50 µM (inactive); in the experiment with UO-31 it was > 50 µM (inactive); in the experiment with UACC-257, > 50 µM (inactive); in the experiment on OVCAR-5, > 50 µM (inactive). Besides, the GI50 with RPMI-8226 and in the experiment with SK-MEL-28 was > 50 µM (inactive) each time.
As to `O=S(=O)(O)SC/C=C\CSS(=O)(=O)O`, the GI50 in the experiment with HCT-116 was > 100 µM (inactive); in the experiment on KM12, 21.4 µM (inactive); in the experiment on HL-60, > 100 µM (inactive); in the experiment on KM-20L2, > 100 µM (inactive); with Malme-3M, > 100 µM (inactive); in the experiment on COLO 205 it was > 100 µM (inactive). In addition, the GI50 was > 100 µM (inactive) in the experiment with ACHN; > 100 µM (inactive) in the experiment with NCI-H522; 42.3 µM (inactive) in the experiment with HT-29; > 100 µM (inactive) in the experiment on UO-31; > 100 µM (inactive) in the experiment with UACC-257; > 100 µM (inactive) with OVCAR-5. For the same compound, the GI50 in the experiment on RPMI-8226 and in the experiment with SK-MEL-28 was > 100 µM (inactive) throughout.
`CCOc1ccccc1NC(=O)C(=O)CC(=O)c1c(C)[n+]([O-])c2ccccc2[n+]1[O-]`: the GI50 was > 100 µM (inactive) with HCT-116; 83.9 µM (inactive) with KM12; > 100 µM (inactive) with HL-60; 75.7 µM (inactive) in the experiment on KM-20L2; > 100 µM (inactive) with Malme-3M; 35.2 µM (inactive) in the experiment on COLO 205. For the same compound, the GI50 in the experiment with ACHN was > 100 µM (inactive); with NCI-H522, 84.5 µM (inactive); with HT-29 it was > 100 µM (inactive); with UO-31, > 100 µM (inactive); in the experiment on UACC-257 it was > 100 µM (inactive); with OVCAR-5, > 100 µM (inactive). Also, the GI50 with RPMI-8226 and with SK-MEL-28 was > 100 µM (inactive) each time.
As for `NC(=O)c1c2c(cc3c(=O)c4ccccc4[nH]c13)CCCC2`, the GI50 in the experiment with HCT-116 was > 100 µM (inactive); in the experiment with KM12, > 100 µM (inactive); in the experiment on HL-60, > 100 µM (inactive); with KM-20L2, > 100 µM (inactive); in the experiment on Malme-3M, > 73.6 µM (inactive); in the experiment on COLO 205 it was > 100 µM (inactive). The GI50 with ACHN, with NCI-H522, in the experiment with HT-29, with UO-31, in the experiment on UACC-257 and with OVCAR-5 was > 100 µM (inactive) in each case. The GI50 in the experiment on RPMI-8226 was > 46.8 µM (inactive); in the experiment on SK-MEL-28 it was > 100 µM (inactive).
